# Assay results: patent US20130324522A1, “INSECT ODORANT RECEPTOR ANTAGONISTS” (THE ROCKEFELLER UNIVERSITY, priority 2010, published 2013)
# pIC50: −log10 of the molar value. Like-named read-outs stand apart in the source and are kept apart here.
# Key:
# [1] = target: T1, Or47a/Or83b (Drosophila melanogaster, UniProt P81921+Q9VNB5); experiment: Ca2+-imaging of stable Flip-In T-Rex cell line Or47a/Or83b; assay type: cell-based; settings: for inhibition at 4 µM: compound applied at 4 μM, read-out: Percent Inhibition OR47a OR83b
# T1 construct: Full-length cDNAs for mosquito (Anopheles gambiae) odorant receptor (OR1, OR2, OR7, OR8, OR28), and fly (Drosophila melanogaster) odorant receptor (Or47a, Or83b); expressed in transfected cells
# T1 sequence (P81921 1-385): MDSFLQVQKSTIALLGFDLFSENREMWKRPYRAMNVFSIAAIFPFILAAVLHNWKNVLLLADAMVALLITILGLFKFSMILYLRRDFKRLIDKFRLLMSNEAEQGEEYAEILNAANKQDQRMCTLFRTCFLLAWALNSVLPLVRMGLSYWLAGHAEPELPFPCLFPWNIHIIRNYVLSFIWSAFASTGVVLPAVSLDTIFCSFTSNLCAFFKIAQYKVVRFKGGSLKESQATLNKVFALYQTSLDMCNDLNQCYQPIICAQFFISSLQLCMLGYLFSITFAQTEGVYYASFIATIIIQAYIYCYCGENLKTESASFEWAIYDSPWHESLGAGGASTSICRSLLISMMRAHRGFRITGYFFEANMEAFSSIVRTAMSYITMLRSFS
# T1 sequence (Q9VNB5 1-486): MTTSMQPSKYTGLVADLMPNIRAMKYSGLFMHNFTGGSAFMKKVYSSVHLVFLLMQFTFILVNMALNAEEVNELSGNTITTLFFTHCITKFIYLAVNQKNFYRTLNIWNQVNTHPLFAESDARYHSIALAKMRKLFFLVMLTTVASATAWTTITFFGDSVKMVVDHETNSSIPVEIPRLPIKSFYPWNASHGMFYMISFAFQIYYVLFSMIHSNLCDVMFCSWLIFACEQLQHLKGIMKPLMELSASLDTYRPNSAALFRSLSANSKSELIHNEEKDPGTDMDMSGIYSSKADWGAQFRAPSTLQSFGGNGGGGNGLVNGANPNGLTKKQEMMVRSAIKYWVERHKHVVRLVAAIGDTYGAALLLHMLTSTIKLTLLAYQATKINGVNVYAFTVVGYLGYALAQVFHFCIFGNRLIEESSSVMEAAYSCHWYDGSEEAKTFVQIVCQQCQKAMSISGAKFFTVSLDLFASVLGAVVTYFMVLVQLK
# Experimental: (§1) Full-length cDNAs for mosquito (Anopheles gambiae) odorant receptor (OR1, OR2, OR7, OR8, OR28), and fly (Drosophila melanogaster) odorant receptor (Or47a, Or83b), mouse TRP channel (TRPM8), and mouse serotonin receptor (5HT3) were obtained and subcloned into mammalian expression vectors. The following mammalian expression vectors were used:
# Stable cell lines Or47a/Or83b and 5HT3 were generated from Flip-In T-Rex cells. Flip-In T-Rex-based cell lines were cultured in DMEM supplemented with these additional antibiotics: 6 μg/mL blasticidin and 100 μg/mL hygromycin.
# Cells were trypsinized and split into 35 mm dishes 1 day before transfection. Confluent cells (60-70%) in 35 mm dishes were co-transfected with 1 μg of Or47a/Or83b plasmid in pcDNA5/FRT/TO/IRES plus the pOG44 plasmid or 1 μg of 5HT3 plasmid in pcDNA5/FRT/TO plus the pOG44 plasmid using lipofectamine 2000. Co-transfection of pOG44 and pcDNA5/FRT/TO/IRES or pcDNA5/FRT/TO allows expression of Flp recombinase and integration of the pcDNA5 plasmid into the genome via the FRT site. After one day of incubation, the transfected cells were transferred into 10 cm dishes with DMEM containing antibiotics: 20 μg/mL of hygromycin and 6 μg/mL of blasticidin. The concentration of Hygromycin was increased to 100 μg/mL when the population of cells became 30-40% confluent. The cells were cultured by changing medium every two days until cell clumps appeared. The clumps were picked and transferred into 96 well plates with DMEM containing 100 μg/mL of Hygromycin and 6 μg/mL of blasticidin. The cells were grown and transferred to 24 well plates, and ligand-evoked calcium increases were tested using the Hamamatsu FDSS6000 real time fluorescence plate reader.
# (§2) Stable cell lines were cultured in 10 cm dishes, and confluent cells (70-80%) were trypsinized. 10,000 cells/20 μL were transferred into each well of 384-well plates coated with poly-D-lysine, and cultured for 2 days. For Flip-In T-Rex cells (cell lines expressing Or47a/Or83b and 5HT3), 5 μL of tetracycline (5 μg/mL) were added 1 day before the assay. 20 μL of Ca-4 dye was loaded into each well for 1.5 hr at room temperature in the dark, and the dye-loaded plates were subjected to Ca^2+-imaging using a Hamamatsu FDSS6000 real time fluorescence plate reader. Odorant solutions (9× final concentration) were prepared by dissolving 1M stock solutions into Hank's Buffered Salt Solution (HBSS), and 30 μL of odor solution was transferred to each well in 384-well plates.
# (§3) Compounds ([…] in DMSO) were stored in 384-well plates, and last two columns (32 wells total) contained only DMSO. 200 nL of small compounds were transferred into the odorant plates before the assay using the Perkin-Elmer Janus workstation. The odorant plates were spun down to remove air bubbles, and placed on the FDSS6000 plate loader, and 5 μL of odorant solution was applied to the cell plate on the FDSS6000. Ca^2+ increase was monitored with fluorescence at 525 nm by excitation at 485 nm.
# [2] = target: T2, TRP channel (TRPM8) (Mus musculus, UniProt Q8R4D5); experiment: Ca2+-imaging of stable HEK293T cell line TRPM8; assay type: cell-based; settings: for inhibition at 4 µM: HEK-293T, compound applied at 4 μM, read-out: Percent Inhibition TRPM8
# T2 construct: Full-length cDNAs for mosquito (Anopheles gambiae) odorant receptor (OR1, OR2, OR7, OR8, OR28), and fly (Drosophila melanogaster) odorant receptor (Or47a, Or83b), mouse TRP channel (TRPM8); expressed in transfected cells
# T2 sequence (Q8R4D5 whole entry): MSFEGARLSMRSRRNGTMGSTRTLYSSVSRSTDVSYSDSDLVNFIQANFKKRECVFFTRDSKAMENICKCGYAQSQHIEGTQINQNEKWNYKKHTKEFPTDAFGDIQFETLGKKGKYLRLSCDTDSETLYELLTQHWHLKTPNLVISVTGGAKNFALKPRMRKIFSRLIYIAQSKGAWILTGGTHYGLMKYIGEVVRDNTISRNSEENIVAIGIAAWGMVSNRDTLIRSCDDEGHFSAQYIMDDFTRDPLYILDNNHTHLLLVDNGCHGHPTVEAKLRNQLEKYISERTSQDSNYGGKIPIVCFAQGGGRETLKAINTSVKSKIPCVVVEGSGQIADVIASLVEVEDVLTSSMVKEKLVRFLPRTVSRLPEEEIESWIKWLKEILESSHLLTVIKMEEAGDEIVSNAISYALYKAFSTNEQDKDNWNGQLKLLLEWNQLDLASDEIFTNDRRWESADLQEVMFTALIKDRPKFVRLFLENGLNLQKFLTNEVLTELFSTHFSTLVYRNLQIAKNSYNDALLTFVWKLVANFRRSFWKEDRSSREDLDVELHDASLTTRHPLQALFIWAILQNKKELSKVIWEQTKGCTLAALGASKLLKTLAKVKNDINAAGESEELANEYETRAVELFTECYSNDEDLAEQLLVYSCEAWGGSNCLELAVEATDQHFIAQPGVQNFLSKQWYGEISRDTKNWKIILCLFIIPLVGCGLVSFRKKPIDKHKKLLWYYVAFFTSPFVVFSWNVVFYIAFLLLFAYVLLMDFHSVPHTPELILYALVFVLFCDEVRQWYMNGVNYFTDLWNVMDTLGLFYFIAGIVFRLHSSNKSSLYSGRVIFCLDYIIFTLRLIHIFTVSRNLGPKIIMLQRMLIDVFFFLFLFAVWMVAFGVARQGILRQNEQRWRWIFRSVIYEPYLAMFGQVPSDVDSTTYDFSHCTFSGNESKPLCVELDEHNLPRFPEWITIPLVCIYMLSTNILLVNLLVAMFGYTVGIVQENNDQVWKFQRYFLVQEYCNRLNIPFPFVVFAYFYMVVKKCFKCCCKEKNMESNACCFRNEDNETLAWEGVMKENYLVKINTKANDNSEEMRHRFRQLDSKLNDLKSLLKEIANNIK
# Experimental: as §1
# Stable cell lines OR1/OR7, OR2/OR7, OR8/OR7, OR10/OR7, OR28/OR7 and TRPM8 were generated from HEK293T cells. HEK293T-based cell lines were cultured in DMEM supplemented with these additional antibiotics: 6 μg/mL blasticidin and 1 μg/mL puromycin, with the exception of the TRPM8 cell lines, which was cultured in DMEM supplemented with 1 μg/mL puromycin.
# Cells were trypsinized and split into 35 mm dishes one day before transfection. Confluent cells (60-70%) in 35 mm dishes were transfected with 1 μg of insect OR(X) plasmids in pME18s-bla and 1 μg of OR7-pME18s-puro using lipofectamine 2000. For Anopheles odorant receptors, two plasmids were co-transfected into HEK cells: the ligand-specific receptor (OR1, OR2, OR8, OR28) and the corresponding olfactory co-receptor: OR7. Cell lines containing TRPM8 were transfected with single plasmid.
# as §2, §3
SMILES,inhibition at 4 µM [1] [%],inhibition at 4 µM [2] [%],"pIC50 ([1]; Table B, read-out: IC50 OR47a)",pIC50 [1],pIC50 [2]
O=C(Cc1cccc(F)c1)N1CCOC(COCc2c(Cl)cccc2Cl)C1 (centres unmarked) [RU-0050398],26 to 50,< 25,,,
COCCCN(Cc1c(-c2ccccc2)noc1N(C)C(C)C)C(=O)c1ccccc1OC [RU-0037003],< 25,< 25,,,
CC(C)CN(Cc1nccn1Cc1ccc(Cl)cc1Cl)C(=O)c1ccccc1F [RU-0055322],26 to 50,< 25,,,
Cc1ccccc1C(=O)N[C@@H]1CCCCC1NC(=O)C1CCCN(S(=O)(=O)c2cc(Cl)ccc2Cl)C1 (some centres unmarked) [RU-0045691],26 to 50,< 25,,,
CC(=O)OCC(=O)NCC1Cc2cc(Oc3ccccc3)ccc2O1 (centres unmarked) [RU-0079120],51 to 74,< 25,> 7.00,,
CCc1cc(N2CCCC2)nc(SCc2ccc(C(=O)N3CCOCC3)o2)n1 [RU-0047568],26 to 50,26 to 50,,,
Cc1cc(N(C)C2CCCCC2)nc(SCc2cccc(C(=O)N3CCCC3)c2)n1 [RU-0034108],26 to 50,< 25,< 6.00,,
c1ccc(CNc2nc(NCc3ccco3)nc(N3CCOCC3)n2)cc1 [RU-0020050],51 to 74,26 to 50,> 7.00,,
O=C(c1c(F)c(F)cc(F)c1F)N1CCOC(Cc2ccccc2)C1 (centres unmarked) [RU-0050393],26 to 50,< 25,,,
COc1ccccc1CCC(=O)N1CCC(CCC(=O)Nc2ccccc2)CC1 [RU-0032455],51 to 74,< 25,< 6.00,,
CCOC(=O)CCC(=O)N(CCc1ccccc1)CC(=O)Nc1cc(C(C)(C)C)nn1-c1ccccc1C [RU-0072462],26 to 50,< 25,,,
CC(C)Nc1nc(Cl)nc(NCc2ccccc2)n1 [RU-T9],,,,< 4.70,< 4.70
CCOC(=O)C1CCCN(C(=O)c2csc(CSc3nnc(-c4cccc(OC)c4)n3-c3ccc(C)cc3)n2)C1 (centres unmarked) [RU-0071628],51 to 74,< 25,< 6.00,,
COc1ccccc1C(=O)C1CCCN(C(=O)c2cccc(N3CCOCC3)c2)C1 (centres unmarked) [RU-0029350],51 to 74,26 to 50,> 7.00,,
C=CCN(Cc1nccn1Cc1ccccc1F)C(=O)c1cccc(F)c1 [RU-0058232],26 to 50,26 to 50,,,
C=CCN(Cc1nccn1Cc1ccc(Cl)c(Cl)c1)C(=O)c1ccccc1F [RU-0047955],26 to 50,< 25,,,
C=CCNC(=O)C(NC(=O)c1cccc(C)c1)C1CCN(C(=O)c2cccc(Br)c2)CC1 (centres unmarked) [RU-0039123],51 to 74,< 25,< 6.00,,
C=CCN(Cc1nccn1Cc1ccccc1C)C(=O)CC(C)C [RU-0058298],51 to 74,26 to 50,< 6.00,,
